Assays:
[1] = test system: gastric cancer line MKN45 cells; assay: CTG (CellTiter-Glo) cell viability assay, 6×6 combo matrix, 72 h, MKN45;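 further: MKN45 cell viability read as CellTiter-Glo luminescence after 72 h culture at 37 °C under 5% CO2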
Method: (§1) To measure the cell inhibition effect of compounds and synergy effect of test articles on ten (10) cell lines using standard CTG assay.
(§2) 7) Using complete cell medium, adjust the volume of the suspension to achieve a cell concentration.
(§3) A549, T47D, SK-OV-3, MKN45, SK-Hep-1, HT-29, Capan-1, 786-O and LNCaP cell line, for compounds and vehicle groups, the seeding density of cell lines is 3000 cells/80 µL per well. For blank groups, add 100 µL medium. For PBS groups, add 100 µL PBS.
(§4) 8) Incubate the U87MG, A549, T47D, SK-OV-3, MKN45, SK-Hep-1, HT-29, Capan-1, 786-O and LNCaP cells overnight at 37° C./5% CO2.
(§5) Solid compound of cis-platinum was solubilized in PBS to a stock solution of 3.333 mM.
(§6) Final volume is 100 µL per well at this point.
(§7) 5) Incubate the plates at 37° C./5% CO2 for 72 hours.
(§8) 1) Incubate the plates at room temperature and away from light for 30 minutes.
(§9) 3) Add 100 µL /well of CellTiter-Glo® Reagent in each well. Avoid light.
(§10) 4) Mix contents for 2 minutes on an orbital shaker.
(§11) 5) Incubate plate at room temperature for 10 minutes to stabilize the luminescent signal.
6) Read plates in Envision.

[2] = test system: breast cancer line T47D cells;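 further: luminescence read-out after 72 h at 37 °C under 5% CO2, with medium-only wells as blanks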
[3] = test system: glioblastoma line U87MG cells;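 further: U87MG cells seeded at 2000 per well, exposed 72 h, viability read by CellTiter-Glo luminescence, inhibition expressed relative to vehicle-treated wells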
[4] = test system: gastric cancer line MKN45 cells;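 further: MKN45 cell viability read as CellTiter-Glo luminescence after 72 h culture at 37 °C under 5% CO2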
Method: as §1, §2, §3, §4, §5, §6, §7, §8, §9, §10, §11
6) Read plates in Envision.

[5] = test system: lung adenocarcinoma line A549 cells;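 further: luminescent ATP readout with CellTiter-Glo after compound exposure, used to assess growth inhibition and combination synergy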

## CC(=O)O[C@H]1C(=O)[C@@]2(C)[C@H]([C@H](OC(=O)c3ccccc3)[C@]3(O)C[C@H](OC(=O)[C@H](O)[C@@H](NC(=O)c4ccccc4)c4ccccc4)C(C)=C1C3(C)C)[C@]1(OC(C)=O)CO[C@@H]1C[C@@H]2O [taxol, paclitaxel]
[1]; Tax 8 nM only (LB-1 0)
  Relatively Cell inhibition of vehicle control(%): 52.04%
[1]; Tax 8 nM only (Myr 0)
  Relatively Cell inhibition of vehicle control(%): 50.47%
[1]; Tax 40 nM only (LB-1 0)
  Relatively Cell inhibition of vehicle control(%): 48.11%
[1]; Tax 40 nM only (Myr 0)
  Relatively Cell inhibition of vehicle control(%): 56.30%
[1]; Tax 200 nM only (LB-1 0)
  Relatively Cell inhibition of vehicle control(%): 64.94%
[1]; Tax 200 nM only (Myr 0)
  Relatively Cell inhibition of vehicle control(%): 68.16%
[1]; Tax 1000 nM only (LB-1 0)
  Relatively Cell inhibition of vehicle control(%): 70.65%
[1]; Tax 1000 nM only (Myr 0)
  Relatively Cell inhibition of vehicle control(%): 69.93%
[2]
  inhibition: 17%
[3]
  inhibition: 5.92%
[4]
  inhibition: 35.1%
[5]
  inhibition: 13.7%

## COc1cccc2c1C(=O)c1c(O)c3c(c(O)c1C2=O)C[C@@](O)(C(=O)CO)C[C@@H]3O[C@H]1C[C@H](N)[C@H](O)[C@H](C)O1 [doxorubicin]
[2]
  inhibition: 0.17%
[3]
  inhibition: 27.5%

## O=c1c(O)c(-c2cc(O)c(O)c(O)c2)oc2cc(O)cc(O)c12 [myricetin]
[1]; Myr 0.8 µM only (Cis 0)
  Relatively Cell inhibition of vehicle control(%): 5.96%
[1]; Myr 0.8 µM only (Dox 0)
  Relatively Cell inhibition of vehicle control(%): 1.79%
[1]; Myr 0.8 µM only (Tax 0)
  Relatively Cell inhibition of vehicle control(%): 0.13%
[1]; Myr 0.8 µM only (Top 0)
  Relatively Cell inhibition of vehicle control(%): -8.02%
[1]; Myr 4 µM only (Cis 0)
  Relatively Cell inhibition of vehicle control(%): 6.78%
[1]; Myr 4 µM only (Dox 0)
  Relatively Cell inhibition of vehicle control(%): 2.42%
[1]; Myr 4 µM only (Tax 0)
  Relatively Cell inhibition of vehicle control(%): -1.75%
[1]; Myr 4 µM only (Top 0)
  Relatively Cell inhibition of vehicle control(%): -4.89%
[1]; Myr 20 µM only (Cis 0)
  Relatively Cell inhibition of vehicle control(%): 14.42%
[1]; Myr 20 µM only (Dox 0)
  Relatively Cell inhibition of vehicle control(%): 13.04%
[1]; Myr 20 µM only (Tax 0)
  Relatively Cell inhibition of vehicle control(%): 5.06%
[1]; Myr 20 µM only (Top 0)
  Relatively Cell inhibition of vehicle control(%): 1.70%
[1]; Myr 100 µM only (Cis 0), listed as Myr
  Relatively Cell inhibition of vehicle control(%): 44.00%
[1]; Myr 100 µM only (Dox 0)
  Relatively Cell inhibition of vehicle control(%): 35.29%
[1]; Myr 100 µM only (Tax 0)
  Relatively Cell inhibition of vehicle control(%): 32.89%
[1]; Myr 100 µM only (Top 0)
  Relatively Cell inhibition of vehicle control(%): 29.93%

## CC[C@@]1(O)C(=O)OCc2c1cc1n(c2=O)Cc2cc3c(CN(C)C)c(O)ccc3nc2-1 [topotecan]
[1]; Top 16 nM only (Myr 0)
  Relatively Cell inhibition of vehicle control(%): 27.49%
[1]; Top 80 nM only (LB-1 0)
  Relatively Cell inhibition of vehicle control(%): 48.98%
[1]; Top 80 nM only (Myr 0)
  Relatively Cell inhibition of vehicle control(%): 53.47%
[1]; Top 400 nM only (LB-1 0)
  Relatively Cell inhibition of vehicle control(%): 84.58%
[1]; Top 400 nM only (Myr 0)
  Relatively Cell inhibition of vehicle control(%): 85.99%
[1]; Top 2000 nM only (LB-1 0)
  Relatively Cell inhibition of vehicle control(%): 91.55%
[1]; Top 2000 nM only (Myr 0)
  Relatively Cell inhibition of vehicle control(%): 92.29%
[1]; Top 10000 nM only (LB-1 0)
  Relatively Cell inhibition of vehicle control(%): 89.36%
[1]; Top 10000 nM only (Myr 0)
  Relatively Cell inhibition of vehicle control(%): 91.07%
[2]
  inhibition: 2.49%
[4]
  inhibition: 14.9%

— patent US20230165831A1, “METHOD AND COMPOSITION FOR RENDERING CANCER CELLS SUSCEPTIBLE TO TREATMENT BY TARGETED ONCOGENETIC DRIVERS” (IMPACT BIOLIFE SCIENCE, INC., priority 2021, published 2023)
